# Key:
# SK-N-SH cells = assay: LDH assay / cell number and viability, SK-N-SH cells; type: cell-based, human
# Text: Measurement of released lactate dehydrogenase (LDH) in the conditioned medium was undertaken as a marker of cell viability and integrity, as described previously (Lahiri et al., 1997 and 1998).
# This was not associated with cellular dysfunction, as determined by measurement of LDH levels versus untreated controls (FIG. 4C).
# βAPP = βAPP protein levels in U373 MG astrocytoma cells, western blot; type: cell-based; conditions: FIGS. 6A-C, alone or with PD98059 or LY294002
# Experimental: SK-N-SH neuroblastoma cells were cultured on 60 mm dishes at a concentration of 3×10^6 cells, and SH-SY-5Y neuroblastoma and U373 astrocytorna cell lines were plated in 100 mm dishes at a concentration of 3×10^5 cells. The cells were allowed to grow in complete medium ([…], 2 mM glutamine in DMEM) for 3 to 4 days until they reached 70% confluence. To start the experiment, spent medium was removed and replaced with fresh medium (SKNSH—4 ml of DMEM+0.5% FBS; U373—5 ml of DMEM+2.5% FBS) containing 0, 5, or 50 μM phenserine. The cells were incubated at 37° C., 5% CO2 for the specific times indicated. Different media and sera were purchased from Life Technologies (Gaithersberg, Md.). […]
# At each time point, the spent medium was collected and stored at −70° C. for later analysis of secretory βAPP levels. The cells were washed twice with PBS, pH 7.4 and incubated on ice for 15 min for lysis with 100 μL of lysis buffer (20 mM HEPES, 2 mM EGTA, 50 mM (β-glycophosphate, 1 mM sodium orthovanadate, 1% Triton X-100, 10% glycerol) containing appropriate protease inhibitors (2 mM PMSF, 100 μg/mL aprotinin, 25 μM leupeptin and 20 μg/mL soybean trypsin inhibitor). Each lysate was microcentrifuged for 15 min at 14 000 rpm. Protein levels of the supernatant were analyzed by the Bradford protein assay (BioRad, Melville, N.Y.). […]
# [1] = in vivo toxicity, i.p. administration to rodents
# Experimental: This persisted for an hour and is related to central cholinergic overdrive. […] Animals were incapacitated at 20 mg/kg (N=3 per dose group), and 2 were killed when moribund.
smiles,measurement,setting,value
CN1CC[C@@]2(C)c3cc(OC(=O)Nc4ccccc4)ccc3N(C)[C@@H]12 [(−)-phenserine],LDH levels in media,"SK-N-SH cells; SK-N-SH, 50 μM, up to 16 hours",no significant difference between treated and untreated levels
same,toxicity as assessed by an LDH assay,"SK-N-SH cells; SK-N-SH, 0.5, 5 or 50 μM, 16 hours",no significant toxicity
same,"reduction of βAPP protein levels, densitometric quantification",βAPP,> 25%
same,clinical signs,[1]; 5 mg/kg,a fine tremor is observed
same,clinical signs,[1]; 7.5 mg/kg,Tremor together with symptoms of peripheral cholinergic overdrive
same,duration of tremor and peripheral cholinergic symptoms,[1]; 7.5 mg/kg,~3 h
same,clinical signs,[1]; 20 mg/kg,incapacitated

# Source: patent US8691864B2, “Agents useful for reducing amyloid precursor protein and treating dementia and methods of use thereof” (priority 2000, dated 2014)
